Source: US10385378B2, “Method for determining toxic substances by plant gel agar coagulation” (priority 2017, dated 2019)
Values after ≈ are worked out from the molar mass of the structure shown. Like-named read-outs stand apart in the source and are kept apart here.

Legend:
in vitro [1] = conditions: mouse
Procedure: (§1) The MTT reagent was reduced to the purple crystalline formazan by the mitochondrial enzyme of surviving cells, and the crystals were dissolved by DMSO (Dimethyl Sulfoxide).
(§2) Subsequently, the absorbance of OD570 nm was measured. The color depth was proportional with the number of viable cells. […] After 3-5 hours, the cells were plated on 96-well plates and added to the sample (100 μl per well). After incubation for 24 hours, the MTT reagent (MTT 5 mg/ml dissolved in PBS) was reacted for 1 to 2 hours. The culture medium in the 96-well dish was blotted with the MTT reagent and dissolved in 100 μl of DMSO. The absorbance values were read at a wavelength of 570 nm with an ELISA kit.

in vitro [2] = conditions: mouse; remark: listed apart in the source
Procedure: as §1, §2

[3] = Agar coagulation time with cosmetic materials (3% agar); conditions: for Agar coagulation time with increase of sample concentration vs control group: FIGS. 2-6, mean±SEM, N=3
Procedure: The agar gel solution is dissolved to form a clear solution by changing the temperature in the range from a room temperature to 25° C. The agar gel solution is held in a carrier, such as a bottle, or a test tube, and is tilted at about 30°-60° (for example, 45°) from the vertical orientation. The coagulation time is defined when the agar gel solution ceases to flow.
The subject method utilizes a carrier (such as, for example, a test tube) to observe the effect of added cosmetic material to the coagulation of agar, so as to assess the toxicity of cosmetic materials. In this example, the present invention further evaluates the relevance of the cosmetic material toxicity based on the agar coagulation time with the cytotoxic IC50 testing.
The agar was prepared to be used as the main application material (the plant gel material) for the present invention, and a sample was prepared to test the coagulation time of the agar (for 25 samples under study) as described above. For example, the concentrations of agar solutions are 1%, 2%, 3%, 4%, 5%, and 6% (w/w). In one of the examples, 3% agar solution was heated to 100° C. to be dissolved, and then 100 ml or 200 ml of agar solution was added to a bottle or a test tube to be mixed with various samples (100 ml, or 200 ml). The bottle, or the test tube, were tilted about 45° relative to a plane each 30 seconds, to observe whether there is coagulation, and the cooling from 100° C. to room temperature and corresponding coagulation times were recorded.

[4] = Cell viability analysis (MTT) cytotoxicity, B16-F10 cells; conditions: mouse, B16-F10 cells (ATCC CRL-6475)
Procedure: as §1, §2

[5] = Cell viability analysis (MTT) cytotoxicity, skin 3T3 cells; conditions: mouse, skin 3T3 cells (ATCC CCL-92)
Procedure: as §1, §2

B16-F10 cells [6] = tested on: B16-F10 cells
Procedure: as §1, §2

skin 3T3 cells [7] = tested on: skin 3T3 cells
Procedure: as §1, §2

B16-F10 cells [8] = assay: Cell viability analysis (MTT) cytotoxicity, B16-F10 cells; conditions: MTT, incubation for 24 hours
Procedure: as §1, §2

skin 3T3 cells [9] = assay: Cell viability analysis (MTT) cytotoxicity, skin 3T3 cells; conditions: MTT, incubation for 24 hours
Procedure: as §1, §2

[10] = sample concentration 10 % (w/w)
[11] = sample concentration 20 % (w/w)
[12] = sample concentration 30 % (w/w)
[13] = sample concentration 15 % (w/w)

## Nc1ccccc1O [2-Aminophenol]
In vitro [1]
  IC50: 39.3 mg/L (≈ 0.36 mM)
In vitro [2]
  IC50: 41.2 mg/L (≈ 0.378 mM)

## Nc1cccc(O)c1 [3-Aminophenol]
[3]; sample concentration 1 % (w/w)
  Agar coagulation time: 16.489 ± 0.475 min
[3]; sample concentration 5 % (w/w)
  Agar coagulation time: 20.455 ± 0.968 min
[3]; [10]
  Agar coagulation time: 24.478 ± 1.280 min
[3]; [11]
  Agar coagulation time: 43.671 ± 0.886 min
[3]; [12]
  Agar coagulation time: 67.444 ± 1.687 min
[4]
  IC50 at 24 h: 126 mg/L (≈ 1.16 mM)
[5]
  IC50 at 24 h: 308 mg/L (≈ 2.82 mM)

## CCCCCCCCCCCCOS(=O)(=O)O.N [AmmoniumLauryl Sulfate, Ammonium Lauryl Sulfate]
[3]
  Agar coagulation time with increase of sample concentration vs control group: significantly longer
[3]; sample concentration 1 % (w/w)
  Agar coagulation time: 16.444 ± 0.477 min
[3]; sample concentration 5 % (w/w)
  Agar coagulation time: 18.811 ± 0.987 min
[3]; [10]
  Agar coagulation time: 28.372 ± 1.287 min
[3]; [13]
  Agar coagulation time: 39.572 ± 1.077 min

## CCCCOC(=O)c1ccc(O)cc1 [Butyl Paraben]
[3]; sample concentration 1 % (w/w)
  Agar coagulation time: 13.186 ± 0.080 min
[3]; sample concentration 5 % (w/w)
  Agar coagulation time: 13.210 ± 0.079 min
[3]; [10]
  Agar coagulation time: 13.182 ± 0.076 min
[3]; [11]
  Agar coagulation time: 13.141 ± 0.050 min
[3]; [12]
  Agar coagulation time: 13.238 ± 0.107 min

## CC(O)CCO (centres unmarked) [Butylene Glycol]
B16-F10 cells [6]
  B16-F10 cytotoxicity IC50: >10000 mg/L
In vitro [2]
  IC50: 7320 mg/L (≈ 81.3 mM)

## OCC(O)CO [Glycerin]
[3]; sample concentration 1 % (w/w)
  Agar coagulation time: 13.220 ± 0.081 min
[3]; sample concentration 5 % (w/w)
  Agar coagulation time: 13.228 ± 0.053 min
[3]; [10]
  Agar coagulation time: 13.333 ± 0.087 min
[3]; [11]
  Agar coagulation time: 13.265 ± 0.067 min
[3]; [12]
  Agar coagulation time: 13.322 ± 0.091 min

## OO [Hydrogen Peroxide]
[3]
  Classification harmful / not harmful to skin by agar coagulation time compared with cell survival analysis: harmful to skin
[3]; sample concentration 1 % (w/w)
  Agar coagulation time: 18.406 ± 0.121 min
[3]; sample concentration 5 % (w/w)
  Agar coagulation time: 30.544 ± 0.139 min
[3]; [10]
  Agar coagulation time: 91.139 ± 0.257 min
[3]; sample concentration 17.5 % (w/w)
  Agar coagulation time: >1440 min
[4]
  IC50 at 24 h: 48.9 mg/L (≈ 1.44 mM)
[5]
  IC50 at 24 h: 63.7 mg/L (≈ 1.87 mM)

## CCCCCCCCCCCCCC(=O)OC(C)C [Isopropyl Myristate]
[3]; sample concentration 1 % (w/w)
  Agar coagulation time: 13.153 ± 0.056 min
[3]; sample concentration 5 % (w/w)
  Agar coagulation time: 13.186 ± 0.069 min
[3]; [10]
  Agar coagulation time: 13.185 ± 0.066 min
[3]; [11]
  Agar coagulation time: 13.172 ± 0.065 min
[3]; [12]
  Agar coagulation time: 13.206 ± 0.087 min
[4]
  IC50 at 24 h: > 10000 mg/L
[5]
  IC50 at 24 h: > 10000 mg/L

## CC(O)C(=O)O (centres unmarked) [Lactic acid]
[3]
  Classification harmful / not harmful to skin by agar coagulation time compared with cell survival analysis: harmful to skin
[3]; sample concentration 1 % (w/w)
  Agar coagulation time: 18.299 ± 0.078 min
[3]; sample concentration 5 % (w/w)
  Agar coagulation time: 23.378 ± 0.091 min
[3]; [10]
  Agar coagulation time: 43.302 ± 0.099 min
[3]; [11]
  Agar coagulation time: 253.306 ± 0.124 min
[3]; [12]
  Agar coagulation time: >1440 min
[4]
  IC50 at 24 h: 66 mg/L (≈ 0.733 mM)
[5]
  IC50 at 24 h: 30.5 mg/L (≈ 0.338 mM)

## Cl.NCCCC[C@H](N)C(=O)O [Lysine hydrochloride]
[3]; sample concentration 1 % (w/w)
  Agar coagulation time: 13.241 ± 0.080 min
[3]; sample concentration 5 % (w/w)
  Agar coagulation time: 13.198 ± 0.077 min
[3]; [10]
  Agar coagulation time: 13.238 ± 0.100 min
[3]; [11]
  Agar coagulation time: 13.254 ± 0.119 min
[3]; [12]
  Agar coagulation time: 13.286 ± 0.147 min

## Cn1sc(Cl)cc1=O [Methylchloroisothiazolinone]
Skin 3T3 cells [7]
  Skin cell 3T3 Cytotoxicity IC50: 36.5 mg/L
B16-F10 cells [6]
  B16-F10 cytotoxicity IC50: 58 mg/L

## NCCO [Monoethanolamine]
[3]; sample concentration 1 % (w/w)
  Agar coagulation time: 13.193 ± 0.067 min
[3]; sample concentration 5 % (w/w)
  Agar coagulation time: 13.251 ± 0.077 min
[3]; [10]
  Agar coagulation time: 13.296 ± 0.066 min
[3]; [11]
  Agar coagulation time: 13.345 ± 0.088 min
[3]; [12]
  Agar coagulation time: 13.354 ± 0.083 min
[4]
  IC50 at 24 h: 3650 mg/L (≈ 59.7 mM)

## Oc1cccc(O)c1 [Resorcinol]
[3]; sample concentration 1 % (w/w)
  Agar coagulation time: 32.821 ± 0.082 min
[3]; sample concentration 5 % (w/w)
  Agar coagulation time: 238.511 ± 0.101 min
[3]; [10]
  Agar coagulation time: >4320 min
[3]; [11]
  Agar coagulation time: >4320 min
[3]; [12]
  Agar coagulation time: >4320 min
[4]
  IC50 at 24 h: 4930 mg/L (≈ 44.8 mM)
[5]
  IC50 at 24 h: 9860 mg/L (≈ 89.5 mM)

## O=C(O)c1ccccc1O [Salicylic Acid]
[3]; sample concentration 1 % (w/w)
  Agar coagulation time: 13.210 ± 0.087 min
[3]; sample concentration 5 % (w/w)
  Agar coagulation time: 13.221 ± 0.091 min
[3]; [10]
  Agar coagulation time: 13.144 ± 0.068 min
[3]; [11]
  Agar coagulation time: 13.219 ± 0.093 min
[3]; [12]
  Agar coagulation time: 13.184 ± 0.063 min
[4]
  IC50 at 24 h: 414 mg/L (≈ 3 mM)
[5]
  IC50 at 24 h: 1390 mg/L (≈ 10.1 mM)

## CC(C)CCCC(C)CCCC(C)CCCCC(C)CCCC(C)CCCC(C)C (centres unmarked) [Squalane]
[3]; sample concentration 1 % (w/w)
  Agar coagulation time: 13.260 ± 0.068 min
[3]; sample concentration 5 % (w/w)
  Agar coagulation time: 13.199 ± 0.073 min
[3]; [10]
  Agar coagulation time: 13.276 ± 0.081 min
[3]; [11]
  Agar coagulation time: 13.254 ± 0.077 min
[3]; [12]
  Agar coagulation time: 13.305 ± 0.097 min
[4]
  IC50 at 24 h: 5420 mg/L (≈ 12.8 mM)
[5]
  IC50 at 24 h: > 10000 mg/L

## CC(=O)Oc1c(C)c(C)c2c(c1C)CCC(C)(CCC[C@H](C)CCC[C@H](C)CCCC(C)C)O2 (some centres unmarked) [Tocopherol Acetate]
[3]; sample concentration 1 % (w/w)
  Agar coagulation time: 13.200 ± 0.080 min
[3]; sample concentration 5 % (w/w)
  Agar coagulation time: 13.209 ± 0.079 min
[3]; [10]
  Agar coagulation time: 13.185 ± 0.072 min
[3]; [11]
  Agar coagulation time: 13.167 ± 0.066 min
[3]; [12]
  Agar coagulation time: 13.192 ± 0.071 min
[4]
  IC50 at 24 h: > 10000 mg/L
[5]
  IC50 at 24 h: > 10000 mg/L

## O.O.O=C([O-])CC(O)(CC(=O)[O-])C(=O)[O-].[Na+].[Na+].[Na+] [Trisodium Citrate Dihydrate]
Skin 3T3 cells [7]
  Skin cell 3T3 Cytotoxicity IC50: >10000 mg/L
B16-F10 cells [6]
  B16-F10 cytotoxicity IC50: 3335.4 mg/L

## COC(=O)c1ccc(O)cc1 [methyl p-hydroxybenzate]
[3]; sample concentration 1 % (w/w)
  Agar coagulation time: 13.230 ± 0.084 min
[3]; sample concentration 5 % (w/w)
  Agar coagulation time: 13.197 ± 0.066 min
[3]; [10]
  Agar coagulation time: 13.242 ± 0.087 min
[3]; [11]
  Agar coagulation time: 13.208 ± 0.100 min
[3]; [12]
  Agar coagulation time: 13.203 ± 0.090 min
[4]
  IC50 at 24 h: 4850 mg/L (≈ 31.9 mM)
[5]
  IC50 at 24 h: > 10000 mg/L

## Nc1ccc(N)cc1 [p-Phenylenediamine]
[3]
  Agar coagulation time with increase of sample concentration vs control group: significantly longer
[3]; sample concentration 1 % (w/w)
  Agar coagulation time: 16.245 ± 0.468 min
[3]; sample concentration 5 % (w/w)
  Agar coagulation time: 22.189 ± 0.782 min
[3]; [10]
  Agar coagulation time: 27.500 ± 1.073 min
[3]; [11]
  Agar coagulation time: 39.489 ± 1.572 min
[3]; [12]
  Agar coagulation time: 52.689 ± 1.982 min

## O.O.O.O.O.O.O.O.O.[Na+].[Na+].[S-2] [sodium Sulfide-9-Hydrate]
Skin 3T3 cells [7]
  Skin cell 3T3 Cytotoxicity IC50: >10000 mg/L
B16-F10 cells [6]
  B16-F10 cytotoxicity IC50: 4187.1 mg/L

## Disodium Lauroamphodiacetate
[3]
  Classification harmful / not harmful to skin by agar coagulation time compared with cell survival analysis: harmful to skin
[3]; sample concentration 1 % (w/w)
  Agar coagulation time: 14.356 ± 0.097 min
[3]; sample concentration 5 % (w/w)
  Agar coagulation time: 20.422 ± 0.106 min
[3]; [10]
  Agar coagulation time: 43.333 ± 0.112 min
[3]; [13]
  Agar coagulation time: 87.784 ± 0.176 min
B16-F10 cells [8]
  B16-F10 cytotoxicity IC50: 72.8 mg/L
Skin 3T3 cells [9]
  Skin cell 3T3 Cytotoxicity IC50: 55.6 mg/L
